Measurements: ChEMBL document CHEMBL5107983, “Adipocyte fatty acid binding protein 4 (FABP4) inhibitors. An update from 2017 to early 2022” (Eur J Med Chem, 2022)

Columns and labels:
[1] = target: T1, Fatty acid-binding protein, adipocyte (Homo sapiens, UniProt P15090); assay: Inhibition of human FABP4
[2] = target: T1, Fatty acid-binding protein, adipocyte; assay: Displacement of 1,8-ANS from human recombinant FABP4 incubated for 4 mins by fluorescence based analysis
[3] = target: T1, Fatty acid-binding protein, adipocyte; assay: Inhibition of FABP4 (unknown origin) incubated for 10 mins by fluorescence based analysis

T1 sequence (P15090 whole entry): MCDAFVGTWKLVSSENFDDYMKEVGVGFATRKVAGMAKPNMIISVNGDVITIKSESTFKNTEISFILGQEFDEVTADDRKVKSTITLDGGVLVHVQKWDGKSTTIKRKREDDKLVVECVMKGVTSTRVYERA

| Structure (SMILES) | IC50 [3] [µM] | other results |
| --- | --- | --- |
| COc1cc(Br)c(C(C)(C)C)cc1S(=O)(=O)Nc1ccccc1C(=O)O | – | IC50 [1]: 1.5 µM |
| CC(C)OC(=O)C(C(=O)C(F)(F)F)c1cc(NS(=O)(=O)c2ccccc2)ccc1O (configuration not stated) | – | IC50 [2]: 3.5 µM |
| O=C(O)Cc1cn(-c2ccccc2-c2nc(-c3ccc(Cl)cc3)c(-c3ccccc3)s2)nn1 | 4.31 | – |
| C=CCn1c(=O)[nH]c(=O)c2[nH]c(-c3ccc(OCCNC(=O)c4ccccc4)cc3)cc21 | 2.23 | – |
| O=C(O)Cc1cn(-c2ccccc2-c2nc(-c3ccccc3)c(-c3ccccc3)s2)nn1 | 5.59 | – |
| O=C(O)c1cccc(NS(=O)(=O)c2ccc(Br)c3ccccc23)c1 | – | IC50 [1]: 5.5 µM |
| O=C(O)Cc1cn(-c2ccccc2-c2nc(-c3ccc4ccccc4c3)c(-c3ccccc3)s2)nn1 | 3.7 | – |
